Laboratory results as given in patent publication US9242977B2, “Trk-inhibiting compound” (ONO PHARMACEUTICAL CO., LTD., priority 2012, dated 2016).

How the values were obtained:
Abl = Abl (Homo sapiens (Human), UniProt P00519); assay: Enzyme inhibition activity test for kinases other than Trk (selectivity test): Abl; type: biochemical; conditions: test concentration 3 μM; read-out: Inhibition Rate (%) Abl
Protocol: (§1) A test substance (present compound or comparative compound) was dissolved in dimethylsulfoxide and further diluted with dimethylsulfoxide to prepare a solution having a concentration of 100 times the test concentration of 3 μM. The solution was further diluted to 25-fold with an assay buffer (20 mM HEPES, 0.01% Triton X-100, 2 mM DTT, pH 7.5) to obtain a test substance solution. In a similar manner a positive control substance solution was prepared with a positive control substance.
(§2) A 4-times concentration solution (5 μL) of the test substance prepared with the assay buffer, 5 μL of a 4-times concentration solution of substrate/ATP/metal (Mg) and 10 μL of a 2-times concentration solution of kinase were mixed in a well of a polypropylene 384-well plate and allowed to react at room temperature for 1 hour. The reaction was terminated by adding 60 μL of a Termination Buffer (QuickScout Screening Assist MSA; Carna Biosciences). The substrate peptide and the phosphorylated peptide in the reaction solution were separated and quantified. The kinase reaction was assessed from the product ratio (P/(P+S)) calculated from the height (S) of the peak of the substrate peptide and the height (P) of the peak of the phosphorylated peptide. Other kinases used in the kinase selectivity experiments were, for example, Abl, c-Met, b-Raf, c-Kit and KDR. The following Table 2 indicates substrates, substrate concentrations, ATP concentrations and positive control substances used in respective kinase enzyme inhibition activity tests.
(§3) The inhibition rate was calculated from the average signal intensity of the test wells containing respective test substances provided that the average signal intensity of control wells each containing all reaction components was 0% inhibition and the average signal intensity of background wells (without addition of the enzyme) was 100% inhibition.

[1] = tested on: NGF-induced vascular hyper permeability; assay: Suppression of rat NGF-induced vascular hyper permeability (in vivo test, Evans Blue); conditions: oral, 12 hours after administration, read-out: Rates of Suppression for Vascular Hyper Permeability (%)
Protocol: TrkA-inhibiting activity of the present compound was evaluated in vivo. The present compound dissolved in a medium was orally administered (adminstered volume: 5 mL/kg) to male CD(SD)IGS rats (7- to 9-week old, Charles River laboratories Japan, Inc.) shaved on the back. A medium was orally administered (adminstered volume: 5 mL/kg) to the control and normal groups. After 6 or 12 hours of administration, 3 μg/mL of a NGF (Mouse 2.5s, Natural, Invitrogen) solution prepared in 0.1% BSA (Sigma-Aldrich)-containing saline was intracutaneously administered (dose; 50 μL/site) at 3 sites on the back of animals under halothane anesthesia. For the normal group, 0.1% BSA-containing saline was intracutaneously administered (dose; 50 μL/site) at 3 sites on the back. Immediately after intracutaneous administration, 1% Evans Blue (Tokyo Chemical Industry Co., Ltd.) was administered intravenously from tail (adminstered volume: 3 mL/kg). After 10 minutes of administration, the animals were sacrificed by bleeding due to incision of the abdominal aorta. The sites of intracutaneous administration on the back (3 sites) were excised and the skin samples were respectively transferred to the wells in a 48-well plate (Asahi Glass Co., Ltd.). Formamide (0.8 mL/well) was added to the plate and the plate was sealed and incubated overnight at 60° C. The formamide extraction solution (200 μL) was transferred to a 96-well plate and the absorbance (wavelength: 620 nm) of Evans Blue extracted in formamide was measured on an absorbance microplate reader (SpectraMAX 190, Molecular Devices Japan, K.K.). Standard samples of Evans Blue dissolved in formamide (0, 0.78, 1.56, 3.13, 6.25, 12.5, 25 and 50 μg/mL) were measured at the same time for the absorbance (wavelength: 620 nm) to generate a calibration curve. Based on the calibration curve and the absorbances of samples, the concentrations of Evans Blue in the sample was calculated. The concentrations of Evans Blue for three skin samples collected from one aminal were averaged to obtain the vale for the animal. The rate of suppression for rat NGF-induced vascular hyper permeability of the present compound was calculated according to the following Equation 4: Suppression rate (%)=(1−(AX−AN)/(AC−AN)}×100 Equation 4
wherein AX: the concentration of Evans Blue of the test compound (an average value of 3 samples from one animal);
AN: the concentration of Evans Blue of the normal group (an average value of 3 samples from one animal);
AC: the concentration of Evans Blue of the control group (an average value of 3 samples from one animal).

b-Raf = b-Raf (Homo sapiens (Human), UniProt P15056); assay: Enzyme inhibition activity test for kinases other than Trk (selectivity test): b-Raf; type: biochemical; conditions: test concentration 3 μM; read-out: Inhibition Rate (%) b-Raf
Chain of b-Raf (P15056 whole entry): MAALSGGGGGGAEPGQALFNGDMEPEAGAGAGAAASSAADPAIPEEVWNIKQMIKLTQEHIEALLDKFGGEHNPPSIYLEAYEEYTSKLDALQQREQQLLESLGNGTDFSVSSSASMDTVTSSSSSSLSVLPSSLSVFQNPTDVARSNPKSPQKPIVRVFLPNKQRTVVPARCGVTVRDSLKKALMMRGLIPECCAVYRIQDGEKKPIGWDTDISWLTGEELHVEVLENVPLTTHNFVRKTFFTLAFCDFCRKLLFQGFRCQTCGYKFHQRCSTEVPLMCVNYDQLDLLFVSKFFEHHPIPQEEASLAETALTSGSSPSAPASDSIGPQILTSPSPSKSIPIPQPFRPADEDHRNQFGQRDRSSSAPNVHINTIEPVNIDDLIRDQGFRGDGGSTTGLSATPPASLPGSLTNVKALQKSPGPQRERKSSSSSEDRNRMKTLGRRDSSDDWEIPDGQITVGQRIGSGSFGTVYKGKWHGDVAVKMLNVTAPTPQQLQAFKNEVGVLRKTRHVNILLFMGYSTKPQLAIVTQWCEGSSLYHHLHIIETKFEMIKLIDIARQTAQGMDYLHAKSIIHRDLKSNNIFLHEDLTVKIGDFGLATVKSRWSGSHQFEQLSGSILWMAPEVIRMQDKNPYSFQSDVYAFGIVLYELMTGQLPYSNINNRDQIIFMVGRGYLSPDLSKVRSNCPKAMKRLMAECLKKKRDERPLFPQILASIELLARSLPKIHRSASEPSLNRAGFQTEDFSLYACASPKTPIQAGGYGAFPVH
Protocol: as §1, §2, §3

KDR = KDR (Homo sapiens (Human), UniProt P35968); assay: Enzyme inhibition activity test for kinases other than Trk (selectivity test): KDR; type: biochemical; conditions: test concentration 3 μM; read-out: Inhibition Rate (%) KDR
Protocol: as §1, §2, §3

c-Met = c-Met (Homo sapiens (Human), UniProt P08581); assay: Enzyme inhibition activity test for kinases other than Trk (selectivity test): c-Met; type: biochemical; conditions: test concentration 3 μM; read-out: Inhibition Rate (%) c-Met
Chain of c-Met (P08581 25-1390): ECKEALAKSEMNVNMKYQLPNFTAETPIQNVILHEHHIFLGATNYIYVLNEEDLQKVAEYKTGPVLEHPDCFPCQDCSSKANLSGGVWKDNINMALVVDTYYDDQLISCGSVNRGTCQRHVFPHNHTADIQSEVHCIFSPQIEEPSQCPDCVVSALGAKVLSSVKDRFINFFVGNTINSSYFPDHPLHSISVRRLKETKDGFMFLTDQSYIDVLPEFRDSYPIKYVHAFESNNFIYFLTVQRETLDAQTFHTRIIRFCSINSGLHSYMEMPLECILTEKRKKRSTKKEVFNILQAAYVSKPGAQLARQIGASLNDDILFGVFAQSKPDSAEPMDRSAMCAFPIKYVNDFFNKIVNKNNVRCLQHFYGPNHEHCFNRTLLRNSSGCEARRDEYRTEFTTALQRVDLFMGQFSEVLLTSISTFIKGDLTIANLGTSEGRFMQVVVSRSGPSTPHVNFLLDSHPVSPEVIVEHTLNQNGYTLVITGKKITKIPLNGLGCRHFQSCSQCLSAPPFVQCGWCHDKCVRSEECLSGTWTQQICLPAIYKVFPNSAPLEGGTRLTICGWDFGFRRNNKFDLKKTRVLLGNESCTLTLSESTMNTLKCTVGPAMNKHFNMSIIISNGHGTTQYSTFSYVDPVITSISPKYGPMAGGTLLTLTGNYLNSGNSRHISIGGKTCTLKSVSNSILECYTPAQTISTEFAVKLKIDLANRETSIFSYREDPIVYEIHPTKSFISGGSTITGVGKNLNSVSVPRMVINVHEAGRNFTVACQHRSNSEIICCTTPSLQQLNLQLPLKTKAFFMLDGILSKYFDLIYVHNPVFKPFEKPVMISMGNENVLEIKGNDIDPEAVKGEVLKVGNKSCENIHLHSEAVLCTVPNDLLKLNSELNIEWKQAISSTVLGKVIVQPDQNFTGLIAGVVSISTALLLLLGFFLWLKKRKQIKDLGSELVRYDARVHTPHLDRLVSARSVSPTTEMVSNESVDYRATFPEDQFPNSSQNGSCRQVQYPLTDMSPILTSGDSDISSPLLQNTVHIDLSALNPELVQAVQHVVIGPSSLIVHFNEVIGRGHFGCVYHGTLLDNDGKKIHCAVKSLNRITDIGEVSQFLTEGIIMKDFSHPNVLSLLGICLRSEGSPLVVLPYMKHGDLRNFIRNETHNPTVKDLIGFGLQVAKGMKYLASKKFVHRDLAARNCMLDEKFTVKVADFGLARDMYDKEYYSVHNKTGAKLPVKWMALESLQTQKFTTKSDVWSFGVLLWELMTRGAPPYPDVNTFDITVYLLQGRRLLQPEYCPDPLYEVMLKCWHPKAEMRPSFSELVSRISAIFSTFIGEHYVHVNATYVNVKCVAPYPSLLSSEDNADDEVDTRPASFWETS
Protocol: as §1, §2, §3

c-Kit = c-Kit (Homo sapiens (Human), UniProt P10721); assay: Enzyme inhibition activity test for kinases other than Trk (selectivity test): c-Kit; type: biochemical; conditions: test concentration 3 μM; read-out: Inhibition Rate (%) c-Kit
Chain of c-Kit (P10721 26-976): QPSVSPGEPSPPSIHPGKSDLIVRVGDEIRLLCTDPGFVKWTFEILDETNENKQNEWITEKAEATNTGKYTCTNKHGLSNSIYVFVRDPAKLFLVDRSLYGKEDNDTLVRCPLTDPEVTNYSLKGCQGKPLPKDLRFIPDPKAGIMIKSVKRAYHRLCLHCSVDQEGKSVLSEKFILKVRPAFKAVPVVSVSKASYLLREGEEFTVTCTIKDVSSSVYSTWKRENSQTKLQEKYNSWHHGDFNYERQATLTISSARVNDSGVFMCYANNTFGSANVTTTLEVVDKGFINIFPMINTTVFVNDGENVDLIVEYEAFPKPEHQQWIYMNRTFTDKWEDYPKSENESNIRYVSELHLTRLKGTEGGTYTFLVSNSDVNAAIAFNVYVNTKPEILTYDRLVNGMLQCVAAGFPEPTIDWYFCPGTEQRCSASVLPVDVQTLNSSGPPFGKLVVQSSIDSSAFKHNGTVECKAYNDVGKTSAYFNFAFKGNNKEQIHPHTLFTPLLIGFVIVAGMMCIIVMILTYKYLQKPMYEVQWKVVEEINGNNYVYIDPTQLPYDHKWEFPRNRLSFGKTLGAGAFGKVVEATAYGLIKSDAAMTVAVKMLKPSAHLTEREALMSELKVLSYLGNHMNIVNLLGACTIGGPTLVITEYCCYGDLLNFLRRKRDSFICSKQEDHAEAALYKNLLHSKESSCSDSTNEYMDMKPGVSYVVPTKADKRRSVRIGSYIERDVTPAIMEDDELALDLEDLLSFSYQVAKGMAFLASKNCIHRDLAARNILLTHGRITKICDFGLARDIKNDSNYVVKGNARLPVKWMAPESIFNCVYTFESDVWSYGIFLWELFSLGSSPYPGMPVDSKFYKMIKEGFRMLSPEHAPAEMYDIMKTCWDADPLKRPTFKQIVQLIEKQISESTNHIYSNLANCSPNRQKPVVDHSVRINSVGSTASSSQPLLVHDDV
Protocol: as §1, §2, §3

TrkA = TrkA (Homo sapiens (Human), UniProt P04629); assay: TrkA kinase-inhibiting activity using human TrkA expressing cells (CellSenser TrkA-NFAT-bla CHO-K1, NGF-stimulated reporter assay); type: cell-based; conditions: CHO-K1 cells expressing human TrkA and NFAT-bla; NGF 50 ng/ml; read-out: TrkA inhibitory activity (IC50; μM)
Chain of TrkA (P04629 33-796): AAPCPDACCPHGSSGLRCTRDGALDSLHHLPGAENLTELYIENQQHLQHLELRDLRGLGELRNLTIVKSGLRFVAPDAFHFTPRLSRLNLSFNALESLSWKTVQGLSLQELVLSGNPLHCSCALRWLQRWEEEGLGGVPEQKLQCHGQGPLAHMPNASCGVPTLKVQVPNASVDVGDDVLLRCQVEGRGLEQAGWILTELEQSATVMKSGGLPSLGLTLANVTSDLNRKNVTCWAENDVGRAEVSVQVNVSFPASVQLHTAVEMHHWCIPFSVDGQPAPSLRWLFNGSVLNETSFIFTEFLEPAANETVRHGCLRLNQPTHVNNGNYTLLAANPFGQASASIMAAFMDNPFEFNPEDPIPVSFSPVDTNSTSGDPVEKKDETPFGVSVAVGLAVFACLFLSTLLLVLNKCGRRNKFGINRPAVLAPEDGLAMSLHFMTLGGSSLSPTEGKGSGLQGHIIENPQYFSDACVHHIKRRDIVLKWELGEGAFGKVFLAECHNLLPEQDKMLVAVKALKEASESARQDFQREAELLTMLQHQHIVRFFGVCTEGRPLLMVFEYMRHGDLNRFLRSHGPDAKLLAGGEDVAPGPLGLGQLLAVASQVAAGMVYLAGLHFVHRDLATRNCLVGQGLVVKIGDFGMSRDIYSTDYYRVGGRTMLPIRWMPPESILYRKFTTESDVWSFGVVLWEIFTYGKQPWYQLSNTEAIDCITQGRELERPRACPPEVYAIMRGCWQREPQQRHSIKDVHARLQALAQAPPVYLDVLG
Protocol: TrkA kinase-inhibiting activity in cell systems was measured using CHO-K1 cells expressing human TrkA and NFAT-bla (CellSenser™ TrkA-NFAT-bla CHO-K1 cells, Invitrogen).
On the day before the assay, CellSenser™ TrkA-NFAT-bla CHO-K1 cells were suspended in an assay medium (Opti-MEM1 Reduced Serum Medium (Invitrogen) containing 0.5% dialysed fetal bovine serum (Invitrogen), 0.1 mM nonessential amino acids (Invitrogen), 1 mM sodium pyruvate (Invitrogen) and antibiotics (100 U/mL penicillin and 100 μg/mL streptomycin (Invitrogen)) and plated at a density of 2.4×10^4 cells/40 μL/well in a 96-well clear bottom plate (Corning, Catalogue No.: 3882). In some wells were added only the assay medium at 40 μL/well (Cell-free). On the day of the assay, 10 mM of the present compound (DMSO solution) was distributed in a 96-well plate (Costar, Catalogue No.: 3363) and serially diluted with DMSO with the geometrical ratio of 3. The serial dilutions were diluted with the assay medium to 100-fold to prepare a solution of the present compound with a 10-times concentration (DMSO concentration: 1%). To the plate where cells were plated was added the present compound at 5 μL/well and the plate was incubated in a CO2 incubator with 5% CO2, 95% Air at 37° C. for 30 minutes. For a control and a blank, the assay medium containing 1% DMSO was added at 5 μL/well in place of the solution of the present compound. Subsequently the assay medium containing NGF (Mouse 2.5s, Natural, Invitrogen) was added to the plate at 5 µL/well (final concentration of NGF: 50 ng/ml) and the plate was incubated in a CO2 incubator with 5% CO2, 95% Air at 37° C. for 5 hours. For a group of blanks, the assay medium was added in place of NGF at 5 μL/well. A reporter assay detection reagent (10 μL/well) was added to the plate and the plate was then incubated in the dark at room temperature for 120 minutes. The reporter assay detection reagent was prepared from LiveBLAzer™-FRET B/G Loading Kit (Invitrogen). On an Analyst GT (Molecular Devices Japan, K.K.) the wells were irradiated with excitation light at 405 nm and the fluorescence intensities at 460 nm and 530 nm were measured. The time resolved fluorescence resonance energy transfer (TR-FRET) ratio of each well was calculated according to the following Equation 2. TR-FRET Ratio=(A460X−A460F)/(A530X−A530F) Equation 2
wherein A460X: the fluorescence intensity at 460 nm of the present compound, control or blank;
A460F: the fluorescence intensity at 460 nm of the Cell-free;
A530X: the fluorescence intensity at 530 nm of the present compound, control or blank; and
A530F: the fluorescence intensity at 530 nm of the Cell-free. […]
The IC50 value of the present compound was calculated from the inhibition curve based on the inhibition rate of the present compound at respective concentrations.

Chain of Abl (P00519 whole entry): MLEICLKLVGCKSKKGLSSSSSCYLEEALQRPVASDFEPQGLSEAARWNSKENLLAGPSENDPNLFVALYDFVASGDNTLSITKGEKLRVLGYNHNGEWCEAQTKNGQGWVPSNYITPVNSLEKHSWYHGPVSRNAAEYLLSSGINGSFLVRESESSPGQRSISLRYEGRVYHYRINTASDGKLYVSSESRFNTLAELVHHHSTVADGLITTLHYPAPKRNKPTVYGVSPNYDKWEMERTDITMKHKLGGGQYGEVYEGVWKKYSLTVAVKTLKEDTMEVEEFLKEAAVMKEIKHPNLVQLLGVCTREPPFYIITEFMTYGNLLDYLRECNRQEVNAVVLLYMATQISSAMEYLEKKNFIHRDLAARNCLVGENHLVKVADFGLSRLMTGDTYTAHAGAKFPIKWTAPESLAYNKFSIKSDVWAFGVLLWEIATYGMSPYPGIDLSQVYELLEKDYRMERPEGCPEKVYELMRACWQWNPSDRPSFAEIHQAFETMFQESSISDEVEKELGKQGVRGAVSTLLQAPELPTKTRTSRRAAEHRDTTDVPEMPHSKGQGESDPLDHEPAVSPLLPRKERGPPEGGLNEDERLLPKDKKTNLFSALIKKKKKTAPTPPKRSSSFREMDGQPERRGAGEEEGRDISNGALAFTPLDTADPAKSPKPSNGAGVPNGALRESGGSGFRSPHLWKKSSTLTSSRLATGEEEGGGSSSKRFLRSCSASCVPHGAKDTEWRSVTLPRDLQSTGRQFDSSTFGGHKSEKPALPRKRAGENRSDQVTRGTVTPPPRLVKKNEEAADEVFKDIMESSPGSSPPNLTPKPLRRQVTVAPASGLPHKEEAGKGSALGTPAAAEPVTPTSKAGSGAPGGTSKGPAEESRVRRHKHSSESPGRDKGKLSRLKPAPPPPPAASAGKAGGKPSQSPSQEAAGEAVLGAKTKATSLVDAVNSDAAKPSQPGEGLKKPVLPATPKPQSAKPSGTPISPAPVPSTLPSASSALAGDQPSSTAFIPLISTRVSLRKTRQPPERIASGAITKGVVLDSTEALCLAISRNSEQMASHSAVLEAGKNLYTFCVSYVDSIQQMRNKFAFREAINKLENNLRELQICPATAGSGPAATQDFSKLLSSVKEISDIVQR

SMILES	inhibition at 3 µM (Abl)	inhibition in vivo at 1 mg/kg [1]	inhibition at 3 µM (b-Raf)	inhibition at 3 µM (KDR)	inhibition at 3 µM (c-Met)	inhibition at 3 µM (c-Kit)	IC50 (TrkA)
O=C(Nc1cnc(Oc2ccc(-c3cnc(N4CCCC4=O)s3)cc2)nc1)Nc1cc(C(F)(F)F)ccc1-c1cccnc1 [Example 84-3, 1-(2-{4-[2-(2-oxo-1-pyrrolidinyl)-1,3-thiazol-5-yl]phenoxy}-5-pyrimidinyl)-3-[2-(3-pyridinyl)-5-(trifluoromethyl)phenyl]urea]	5.6%	94%	36%	5.2%	11%	28%	–
CCCNc1ncc(-c2ccc(Oc3ncc(NC(=O)Nc4cc(C(F)(F)F)ccc4-n4ccc(C(F)(F)F)n4)cn3)cc2)s1 [Example 85-184, 1-(2-{4-[2-(propylamino)-1,3-thiazol-5-yl]phenoxy}-5-pyrimidinyl)-3-{5-(trifluoromethyl)-2-[3-(trifluoromethyl)-1H-pyrazol-1-yl]phenyl}urea]	–	96%	–	–	–	–	0.002 µM
CCCNc1ncc(-c2ccc(Oc3ncc(NC(=O)Nc4cc(F)ccc4F)cn3)cc2)s1 [Example 85-209, 1-(2,5-difluorophenyl)-3-(2-{4-[2-(propylamino)-1,3-thiazol-5-yl]phenoxy}-5-pyrimidinyl)urea]	–	81%	–	–	–	–	0.004 µM
CCCNc1ncc(-c2ccc(Oc3ncc(NC(=O)Nc4cc(C(F)(F)F)ccc4S(=O)(=O)N(C)C)cn3)cc2)s1 [Example 85-225, N,N-dimethyl-2-{[(2-{4-[2-(propylamino)-1,3-thiazol-5-yl]phenoxy}-5-pyrimidinyl)carbamoyl]amino}-4-(trifluoromethyl)benzenesulfonamide]	–	94%	–	–	–	–	0.004 µM
CCCNc1ncc(-c2ccc(Oc3ncc(NC(=O)Nc4cc(C(F)(F)F)ccc4S(C)(=O)=O)cn3)cc2)s1 [Example 85-226, 1-[2-(methylsulfonyl)-5-(trifluoromethyl)phenyl]-3-(2-{4-[2-(propylamino)-1,3-thiazol-5-yl]phenoxy}-5-pyrimidinyl)urea]	–	100%	–	–	–	–	0.001 µM
